Tests used:
hCRTH2 receptor = hCRTH2 receptor (Homo sapiens (Human), UniProt Q9Y5Y4); experiment: hCRTH2 receptor membranes radioligand (3H-PGD2) displacement assay; assay type: binding; conditions: 3H-PGD2 radioligand displacement, HEK293-hCRTH2 membranes
How it was run: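 Compound was first mixed with buffer, then 3H-PGD2 was added at 2.5 nM, and the reaction was started with hCRTH2 membranes from HEK293 cells at 20 μg/well. After 90 min at room temperature, mixtures were filtered and washed with ice-cold buffer, and retained radioactivity was counted.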

eosinophils = experiment: Eosinophil shape change assay with human plasma; assay type: cell-based; conditions: Homo sapiens, Eosinophil, human plasma (50%), PGD2 100 nM activation, antagonistic activity
Excerpt: Eosinophil Shape Change Assay with Human Plasma
After obtaining informed consent, blood samples were drawn by venipuncture according to the protocol approved by the ethics committee of Basel, Switzerland. Polymorphonuclear leukocytes (containing eosinophils, basophils and neutrophils) were isolated using the Polymorphprep™ method (Axis-Shield). […] The polymorphonuclear cell fraction was harvested and depleted for erythrocytes by hypotonic saline lysis.
The polymorphonuclear cells were resuspended in assay buffer (1×PBS with Ca^2+/Mg^2+ supplemented with 0.1% BSA, 10 mM HEPES, and 10 mM Glucose, pH 7.4) at 5×10^6 cells/ml and stained with anti-CD49d-APC ((APC=Allophycocyanin) for 1 hour at RT. Test compounds, at various concentrations, were preincubated 10 min in human plasma (anticoagulated with a thrombin inhibitor). Then, human plasma was added to the polymorphonuclear cells to 50% of final assay volume with polymorphonuclear cells at 4×10^6 cells/ml. After incubation for 10 minutes at 37° C., the polymorphonuclear cells were activated for 5 min at 37° C. by addition of PGD2 at 100 nM final concentration. Activation was stopped by addition of 0.5 ml paraformaldehyde (1%).
Immediately after fixation with paraformaldehyde, the samples were analyzed by FACSCanto flow cytometer (BD Biosciences) and target cells were identified by their forward-scatter (FSC) and side-scatter (SSC) characteristics. Eosinophils were identified by the anti-CD49d-APC signal and their characteristic side-scatter (SSC) profile. Shape change responses, indicative of eosinophil activation, were quantified as the percent of cells with an increased forward-scatter.

Sequence of hCRTH2 receptor (Q9Y5Y4 whole entry): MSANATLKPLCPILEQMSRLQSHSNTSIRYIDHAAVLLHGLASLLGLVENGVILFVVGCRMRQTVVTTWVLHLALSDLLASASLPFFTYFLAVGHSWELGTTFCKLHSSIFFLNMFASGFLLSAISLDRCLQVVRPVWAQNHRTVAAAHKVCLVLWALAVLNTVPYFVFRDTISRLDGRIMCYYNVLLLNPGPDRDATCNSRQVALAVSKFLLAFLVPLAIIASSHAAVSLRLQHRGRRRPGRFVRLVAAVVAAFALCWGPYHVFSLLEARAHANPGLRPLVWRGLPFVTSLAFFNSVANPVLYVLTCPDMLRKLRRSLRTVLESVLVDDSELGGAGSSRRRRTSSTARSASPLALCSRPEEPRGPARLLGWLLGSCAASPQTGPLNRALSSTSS

SMILES | IC50 (hCRTH2 receptor) | IC50 (eosinophils)
CCOc1cc(CC(=O)O)ccc1-c1ccc(F)c2c1CN(C(=O)C[C@@H](C)c1ccccc1)CC2 [Example 234, {3-Ethoxy-4-[5-fluoro-2-((R)-3-phenyl-butyryl)-1,2,3,4-tetrahydro-isoquinolin-8-yl]-phenyl}-acetic acid] | 0.9 nM | 47 nM
CCOc1ccc(CC(=O)O)cc1-c1ccc(F)c2c1CN(C(=O)CCc1ccccn1)CC2 [Example 348, {4-Ethoxy-3-[5-fluoro-2-(3-pyridin-2-yl-propionyl)-1,2,3,4-tetrahydro-isoquinolin-8-yl]-phenyl}-acetic acid] | 2.7 nM | 16 nM
COc1ccc(CC(=O)O)cc1-c1ccc(F)c2c1CN(C(=O)CC1CCc3ccccc3C1)CC2 (racemic) [Example 260] | 1.4 nM | 56 nM
CCOc1ccc(CC(=O)O)cc1-c1ccc(F)c2c1CN(C(=O)OCc1ccc(F)cc1F)CC2 [Example 403, 8-(5-Carboxymethyl-2-ethoxy-phenyl)-5-fluoro-3,4-dihydro-1H-isoquinoline-2-carboxylic acid 2,4-difluoro-benzyl ester] | 1.7 nM | 15 nM
CC(C)Oc1ccc(CC(=O)O)cc1-c1ccc(C#N)c2c1CN(C(=O)OCc1ccccc1)CC2 [Example 431, 8-(5-Carboxymethyl-2-isopropoxy-phenyl)-5-cyano-3,4-dihydro-1H-isoquinoline-2-carboxylic acid benzyl ester] | 1.4 nM | 47 nM
COc1ccc(CC(=O)O)cc1-c1ccc(F)c2c1CN(C(=O)CCc1cn(C)c3ccccc13)CC2 [Example 62, (3-{5-Fluoro-2-[3-(1-methyl-1H-indol-3-yl)-propionyl]-1,2,3,4-tetrahydro-isoquinolin-8-yl}-4-methoxy-phenyl)-acetic acid] | 4.74 nM | 106 nM
CCOc1ccc(CC(=O)O)cc1-c1ccc(F)c2c1CN(C(=O)CCc1ccc(F)cc1)CC2 [Example 310, (4-Ethoxy-3-{5-fluoro-2-[3-(4-fluoro-phenyl)-propionyl]-1,2,3,4-tetrahydro-isoquinolin-8-yl}-phenyl)-acetic acid] | 1.7 nM | 7 nM
CCOc1ccc(CC(=O)O)cc1-c1ccc(F)c2c1CN(C(=O)CC(C)c1cccc(C)n1)CC2 (racemic) [Example 328] | 1.8 nM | 15 nM
CCOc1ccc(CC(=O)O)cc1-c1ccc(F)c2c1CN(C(=O)OCc1cccc(F)c1)CC2 [Example 399, 8-(5-Carboxymethyl-2-ethoxy-phenyl)-5-fluoro-3,4-dihydro-1H-isoquinoline-2-carboxylic acid 3-fluoro-benzyl ester] | 4.7 nM | 29 nM
CCOc1ccc(CC(=O)O)cc1-c1ccc(F)c2c1CN(C(=O)OCC1CC1)CC2 [Example 372, 8-(5-Carboxymethyl-2-ethoxy-phenyl)-5-fluoro-3,4-dihydro-1H-isoquinoline-2-carboxylic acid cyclopropylmethyl ester] | 5.5 nM | 149 nM
CCOc1ccc(CC(=O)O)cc1-c1ccc(F)c2c1CN(C(=O)[C@@H]1C[C@H]1c1ccccn1)CC2 (racemic) [Example 330] | 0.6 nM | 15 nM
CCOc1ccc(CC(=O)O)cc1-c1ccc(F)c2c1CN(C(=O)CC(C)c1ccc(F)cc1)CC2 (stereo not shown) [Example 211, (4-Ethoxy-3-{5-fluoro-2-[3-(4-fluoro-phenyl)-butyryl]-1,2,3,4-tetrahydro-isoquinolin-8-yl}-phenyl)-acetic acid] | 2.6 nM | 7 nM
CCOc1ccc(CC(=O)O)cc1-c1ccc(F)c2c1CN(C(=O)CC1CCCc3cccnc31)CC2 (racemic) [Example 350] | 8.2 nM | 9 nM
COc1ccc(CC(=O)O)cc1-c1ccc(Cl)c2c1CN(C(=O)OCc1ccccc1)CC2 [Example 154, 8-(5-Carboxymethyl-2-methoxy-phenyl)-5-chloro-3,4-dihydro-1H-isoquinoline-2-carboxylic acid benzyl ester] | 5.9 nM | 307 nM

From patent US9255090B2, “Heterocyclyl derivatives and their use as prostaglandin D2 receptor modulators” (Actelion Pharmaceuticals Ltd., priority 2012, dated 2016)
